Source: paper PMC10914727 (Nature Communications, 2024)
Values joined by “and” are separate entries in the source; they are usually repeats but may differ in a detail not shown here. Equal values may be shown once. Read-outs that look alike come from different tables or passages of the source.

Legend:
[1] = biological target: T1, endogenous GABAB receptor in CGNs (Mus musculus, UniProt Q9WV18); test: cell-based; set-up: species or system primary cerebellar granule neurons (CGNs); BRET G protein sensor (Galpha-Nluc / Venus-Ggamma2), agonist-induced change of BRET
T1 construct: gene Gabbr1; native receptor, primary cerebellar granule neurons
T1 sequence (Q9WV18 whole entry): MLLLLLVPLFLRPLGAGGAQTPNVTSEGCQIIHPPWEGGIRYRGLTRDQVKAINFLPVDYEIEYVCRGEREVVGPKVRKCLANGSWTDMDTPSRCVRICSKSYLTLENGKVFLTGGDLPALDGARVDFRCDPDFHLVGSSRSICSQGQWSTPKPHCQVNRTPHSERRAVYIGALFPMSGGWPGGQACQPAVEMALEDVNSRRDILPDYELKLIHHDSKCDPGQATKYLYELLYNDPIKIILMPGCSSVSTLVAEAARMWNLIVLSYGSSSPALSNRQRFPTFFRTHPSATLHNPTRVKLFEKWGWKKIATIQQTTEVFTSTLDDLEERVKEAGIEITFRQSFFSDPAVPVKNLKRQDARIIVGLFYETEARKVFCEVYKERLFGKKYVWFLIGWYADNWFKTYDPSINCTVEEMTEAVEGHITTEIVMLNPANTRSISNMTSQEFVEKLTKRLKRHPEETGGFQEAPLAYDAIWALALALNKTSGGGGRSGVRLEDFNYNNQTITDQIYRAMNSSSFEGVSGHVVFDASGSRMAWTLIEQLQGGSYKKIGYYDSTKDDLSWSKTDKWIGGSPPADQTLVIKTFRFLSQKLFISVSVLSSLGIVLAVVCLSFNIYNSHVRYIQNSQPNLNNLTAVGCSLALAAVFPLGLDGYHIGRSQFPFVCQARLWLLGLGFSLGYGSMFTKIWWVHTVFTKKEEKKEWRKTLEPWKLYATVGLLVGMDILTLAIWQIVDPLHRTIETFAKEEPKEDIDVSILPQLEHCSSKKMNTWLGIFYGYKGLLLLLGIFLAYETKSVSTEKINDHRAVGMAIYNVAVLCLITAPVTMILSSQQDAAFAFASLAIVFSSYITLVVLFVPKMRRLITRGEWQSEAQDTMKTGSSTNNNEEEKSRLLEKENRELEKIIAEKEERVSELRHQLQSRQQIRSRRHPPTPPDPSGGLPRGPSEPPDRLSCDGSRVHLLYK
T1 sequence (Q80T41 whole entry partner): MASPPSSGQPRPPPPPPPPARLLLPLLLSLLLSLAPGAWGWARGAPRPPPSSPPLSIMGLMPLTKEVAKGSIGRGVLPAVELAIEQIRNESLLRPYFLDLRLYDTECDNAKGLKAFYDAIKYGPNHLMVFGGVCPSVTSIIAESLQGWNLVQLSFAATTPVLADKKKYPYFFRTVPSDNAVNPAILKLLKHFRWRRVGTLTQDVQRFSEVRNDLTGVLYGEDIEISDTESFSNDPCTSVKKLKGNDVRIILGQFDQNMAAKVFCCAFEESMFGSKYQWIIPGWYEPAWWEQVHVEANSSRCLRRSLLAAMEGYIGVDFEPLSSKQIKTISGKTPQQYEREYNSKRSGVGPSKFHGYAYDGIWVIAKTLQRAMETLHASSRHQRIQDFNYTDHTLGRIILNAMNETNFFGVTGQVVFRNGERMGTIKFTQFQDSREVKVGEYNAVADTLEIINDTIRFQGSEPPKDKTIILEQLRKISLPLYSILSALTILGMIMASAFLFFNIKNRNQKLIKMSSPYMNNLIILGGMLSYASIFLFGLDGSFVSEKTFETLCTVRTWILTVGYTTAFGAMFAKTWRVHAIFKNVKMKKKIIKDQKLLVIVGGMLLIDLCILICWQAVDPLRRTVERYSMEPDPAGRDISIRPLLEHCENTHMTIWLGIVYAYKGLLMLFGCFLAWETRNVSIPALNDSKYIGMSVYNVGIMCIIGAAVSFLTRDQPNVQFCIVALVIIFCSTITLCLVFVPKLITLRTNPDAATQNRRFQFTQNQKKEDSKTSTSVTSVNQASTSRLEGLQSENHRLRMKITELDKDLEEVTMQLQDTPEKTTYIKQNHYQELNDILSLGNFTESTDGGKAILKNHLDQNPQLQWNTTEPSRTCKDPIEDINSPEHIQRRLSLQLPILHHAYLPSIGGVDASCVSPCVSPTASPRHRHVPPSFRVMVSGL
Text: (§1) Dotted line is the correlation of pEC50 determined with HEK293 cells. […] Data are mean ± SEM from at least three biologically independent experiments each performed in triplicate and analysed using one-way ANOVA with a Dunnett’s post-hoc multiple comparison test to determine significance. […] Sequence of the linker (L) before and after Nluc was indicated. […] The raw data and p-values are available in source data provided as a Source Data file.

[2] = biological target: T2, GABAB receptor (GB1 subunit) (Rattus norvegicus, UniProt Q9Z0U4); test: cell-based; set-up: species or system HEK293; BRET G protein sensor (Galpha-Nluc / Venus-Ggamma2), agonist-induced change of BRET
T2 construct: gene Gabbr1; HA-tagged rat GB1 with Flag-tagged rat GB2 expressed in HEK293 cells; with GABAB2 (GB2)
T2 sequence (Q9Z0U4 20-960): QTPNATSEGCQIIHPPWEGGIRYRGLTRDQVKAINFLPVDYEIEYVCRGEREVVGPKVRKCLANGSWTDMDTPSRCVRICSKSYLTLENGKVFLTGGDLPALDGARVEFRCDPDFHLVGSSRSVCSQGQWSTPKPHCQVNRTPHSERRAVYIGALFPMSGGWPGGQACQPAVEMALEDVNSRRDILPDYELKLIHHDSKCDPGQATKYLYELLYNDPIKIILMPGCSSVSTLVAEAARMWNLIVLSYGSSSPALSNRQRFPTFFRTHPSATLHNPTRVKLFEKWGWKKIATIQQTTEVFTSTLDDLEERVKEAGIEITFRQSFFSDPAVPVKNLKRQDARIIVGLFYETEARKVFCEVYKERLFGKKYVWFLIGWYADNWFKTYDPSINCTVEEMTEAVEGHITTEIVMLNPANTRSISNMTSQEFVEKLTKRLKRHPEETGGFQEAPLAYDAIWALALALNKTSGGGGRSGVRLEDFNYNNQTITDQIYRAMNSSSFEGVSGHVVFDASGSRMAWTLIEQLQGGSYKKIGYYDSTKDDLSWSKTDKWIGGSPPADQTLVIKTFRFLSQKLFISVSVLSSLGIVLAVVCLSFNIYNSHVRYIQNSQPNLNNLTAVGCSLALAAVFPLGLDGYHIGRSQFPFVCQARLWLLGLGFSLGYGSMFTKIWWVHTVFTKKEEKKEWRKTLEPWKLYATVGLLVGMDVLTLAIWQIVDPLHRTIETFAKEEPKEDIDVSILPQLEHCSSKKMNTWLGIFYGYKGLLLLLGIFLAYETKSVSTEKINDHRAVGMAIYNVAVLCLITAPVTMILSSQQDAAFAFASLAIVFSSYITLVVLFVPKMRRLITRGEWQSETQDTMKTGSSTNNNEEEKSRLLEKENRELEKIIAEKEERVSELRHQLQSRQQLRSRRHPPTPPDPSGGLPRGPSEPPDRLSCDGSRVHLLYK
T2 sequence (O88871 41-940 partner): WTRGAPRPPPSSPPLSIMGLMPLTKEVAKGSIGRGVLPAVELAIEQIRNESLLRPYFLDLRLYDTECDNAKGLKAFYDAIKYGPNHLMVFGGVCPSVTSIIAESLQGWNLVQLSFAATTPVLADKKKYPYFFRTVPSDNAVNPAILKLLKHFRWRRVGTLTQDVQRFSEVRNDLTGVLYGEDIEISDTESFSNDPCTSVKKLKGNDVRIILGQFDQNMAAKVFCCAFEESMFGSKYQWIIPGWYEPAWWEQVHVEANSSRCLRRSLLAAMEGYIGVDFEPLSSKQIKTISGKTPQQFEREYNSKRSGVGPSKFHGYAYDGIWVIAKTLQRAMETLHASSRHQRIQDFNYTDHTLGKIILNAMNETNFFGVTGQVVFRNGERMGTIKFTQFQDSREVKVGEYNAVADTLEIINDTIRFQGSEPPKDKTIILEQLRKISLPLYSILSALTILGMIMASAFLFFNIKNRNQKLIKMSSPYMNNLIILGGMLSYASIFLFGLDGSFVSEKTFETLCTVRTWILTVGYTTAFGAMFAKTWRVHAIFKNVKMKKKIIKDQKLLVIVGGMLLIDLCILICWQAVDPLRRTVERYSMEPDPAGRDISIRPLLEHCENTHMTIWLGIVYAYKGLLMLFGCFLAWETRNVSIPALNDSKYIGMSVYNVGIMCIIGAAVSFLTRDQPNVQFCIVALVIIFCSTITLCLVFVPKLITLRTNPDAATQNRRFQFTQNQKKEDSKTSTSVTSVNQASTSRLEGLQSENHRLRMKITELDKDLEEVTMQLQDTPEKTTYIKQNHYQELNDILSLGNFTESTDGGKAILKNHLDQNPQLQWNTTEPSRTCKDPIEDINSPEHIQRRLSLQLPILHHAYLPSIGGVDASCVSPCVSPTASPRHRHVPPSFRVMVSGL
Text: as §1

[3] = biological target: T3, endogenous cannabinoid CB1 receptor in CGNs (Mus musculus, UniProt P47746); test: cell-based; set-up: species or system mouse primary cerebellar granule neurons (CGNs)
T3 construct: gene Cnr1; native receptor, primary cerebellar granule neurons
T3 sequence (P47746 whole entry): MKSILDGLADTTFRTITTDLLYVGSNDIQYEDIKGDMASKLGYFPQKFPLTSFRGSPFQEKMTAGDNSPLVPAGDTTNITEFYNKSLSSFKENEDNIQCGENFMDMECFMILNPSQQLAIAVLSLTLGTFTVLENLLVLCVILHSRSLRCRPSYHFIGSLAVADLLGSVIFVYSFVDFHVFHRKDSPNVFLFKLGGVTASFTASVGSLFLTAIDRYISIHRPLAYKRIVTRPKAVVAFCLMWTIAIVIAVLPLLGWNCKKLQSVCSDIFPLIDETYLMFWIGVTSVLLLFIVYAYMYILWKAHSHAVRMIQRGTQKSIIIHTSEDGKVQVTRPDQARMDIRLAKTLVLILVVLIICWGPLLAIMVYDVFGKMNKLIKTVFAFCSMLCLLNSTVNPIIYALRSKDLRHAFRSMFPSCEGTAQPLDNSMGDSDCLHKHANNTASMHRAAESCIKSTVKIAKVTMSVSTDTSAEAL

cannabinoid CB1 receptor [4] = biological target: T4, cannabinoid CB1 receptor (Mus musculus, UniProt P47746); test: cell-based; set-up: species or system HEK293
T4 construct: gene Cnr1; mouse CB1 cDNA expressed in HEK293 cells
T4 sequence (P47746 whole entry): as above
Text: The raw data and p-values are available in source data provided as a Source Data file.

[5] = biological target: T3, endogenous cannabinoid CB1 receptor in CGNs; set-up: species or system mouse primary cerebellar granule neurons (CGNs); settings: agonist
cannabinoid CB1 receptor [6] = biological target: T4, cannabinoid CB1 receptor; test: cell-based; set-up: BRET between Galpha-Nluc and Venus-Ggamma2, agonist-induced Gi1 or GoA response of transfected mouse CB1; settings: read-out: Emax ± SEM (n) / Bay 59-3074
Description: Fig. 6 Difference of Gi1 and GoA responses by cannabinoid receptor CB1 agonists. a Detection of CB1 receptor in cell membranes of CGNs, mock-transfected HEK293 cells and HEK293 cells transfected with mouse CB1 cDNA (80 ng/well in 96-well plate), by western blotting. Values are mean ± SEM normalized as fold of CB1 expression in CGNs from three independent experiments. b Percentage of change in BRET ratio between Gα^Nluc and ^VenusGγ2 induced by [compound left out] in HEK293 cells (CB1 cDNA; 80 ng/well per 96-well plate) or CGNs for the indicated Gαi1, Gαi2, Gαi3, GαoA, GαoB or Gαz sensors (amounts of cDNA as in Fig. 2a). […] Data are analysed using unpaired t-test (two-tailed) to determine significance. ****p < 0.0001, *p < 0.05 and not significant (ns). c, d Change of BRET signal between Gα^Nluc and ^VenusGγ2 induced by the indicated CB1 receptor agonists in HEK293 cells and CGNs measured by Gi1 and GoA sensors. […] Inset, correlation of the agonist potencies (pEC50) between HEK293 cells and CGNs determined by the G protein sensors. Dotted lines are the correlation of pEC50 determined with HEK293 cells. […] Values are mean ± SEM normalized as fold of […] expression in CGNs from four independent experiments. c Expression of the Nluc-tagged Gα transfected in CGNs or in HEK293 cells in (a), measured by the luminescent signal at 480 nm. […]

[7] = biological target: T1, endogenous GABAB receptor in CGNs; test: cell-based; set-up: species or system primary cerebellar granule neurons (CGNs); settings: with 20 uM baclofen
Text: We have further validated these G protein sensors by measuring the potency of different orthosteric GABAB receptor ligands (Fig. 3a) in both CGNs and HEK293 cells. […] Similar results were obtained in the hippocampal neurons and cortical neurons (Supplementary Fig. 4b–d and Supplementary Table 1). […] Dotted line is the correlation of pEC50 determined with HEK293 cells. […] Data are mean ± SEM from at least three biologically independent experiments each performed in triplicate and analysed using one-way ANOVA with a Dunnett’s post-hoc multiple comparison test to determine significance. […] The raw data and p-values are available in source data provided as a Source Data file. Fig. 1 Design and validation of the Gi/o protein sensors in neurons. a Scheme of the BRET-based sensors to detect the activity of the endogenous GPCR in neurons. b Scheme of the Gαi/o^Nluc and ^VenusGγ2 constructs co-transfected in the neurons. Sequence of the linker (L) before and after Nluc was indicated. […] The data are representative of BRET ratios from five independent experiments. e Representative fluorescent images of Venus and DAPI in CGNs transfected with GαoA^Nluc and ^VenusGγ2 or in HEK293 cells transfected with GαoA^Nluc, Gβ1 and ^VenusGγ2 from three independent experiments. […] The data are representative of the mean ± SEM of BRET ratios from three independent experiments. […]

[8] = biological target: T5, endogenous GABAB receptor in cortical neurons (Mus musculus, UniProt Q9WV18); test: cell-based; set-up: species or system primary cortical neurons; settings: read-out: pEC50 cortical neurons (converted)
T5 construct: gene Gabbr1; native receptor, primary cortical neurons
T5 sequence (Q9WV18 whole entry): as the sequence (Q9WV18 whole entry) above
T5 sequence (Q80T41 whole entry partner): as the sequence (Q80T41 whole entry partner) above
Text: (§2) Sequence of the linker (L) before and after Nluc was indicated. […] The raw data and p-values are available in source data provided as a Source Data file.

[9] = biological target: T6, endogenous GABAB receptor in hippocampal neurons (Mus musculus, UniProt Q9WV18); test: cell-based; set-up: species or system primary hippocampal neurons; BRET G protein sensor (Galpha-Nluc / Venus-Ggamma2), agonist-induced change of BRET; settings: read-out: pEC50 hippocampal neurons (converted)
T6 construct: gene Gabbr1; native receptor, primary hippocampal neurons
T6 sequence (Q9WV18 whole entry): as the sequence (Q9WV18 whole entry) above
T6 sequence (Q80T41 whole entry partner): as the sequence (Q80T41 whole entry partner) above
Text: as §2

SMILES	EC50 ([1]; Gi1 sensor) [µM]	EC50 ([1]; GoA sensor) [µM]	EC50 ([8]; Gi1 sensor) [µM]	EC50 ([8]; GoA sensor) [µM]	EC50 ([9]; Gi1 sensor) [µM]	EC50 ([9]; GoA sensor) [µM]	further results
NCCC[PH](=O)O [APPA]	0.741	0.692					EC50 ([2]; pEC50 HEK293, Gi1 sensor): 0.0214 µM; EC50 ([2]; pEC50 HEK293, GoA sensor): 0.017 µM
N#Cc1c(Oc2cccc(OS(=O)(=O)CCCC(F)(F)F)c2)cccc1C(F)(F)F [Bay 59-3074]							EC50 ([3]; pEC50 ± SEM (n) / Bay 59-3074): 0.339 µM and 0.631 µM; EC50 (cannabinoid CB1 receptor [4]; pEC50 ± SEM (n) / Bay 59-3074): 0.708 µM and 1.17 µM; Emax ± SEM (n) / Bay 59-3074 [5]: 70.7 ± 1.1 (4) and 42.1 ± 3.9 (3); Emax (cannabinoid CB1 receptor [6]; HEK293, B=Gi1, % of maximum response of reference agonist): 50.3%; Emax (cannabinoid CB1 receptor [6]; HEK293, B=GoA, % of maximum response of reference agonist): 56.3%
C[C@@H](NC[C@H](O)CP(=O)(O)CCCCCNC(=O)CCc1ccc(O)c(I)c1)c1cccc(C(=O)O)c1 [CGP64213]							IC50 ([7]; Gi1 sensor): 0.0282 µM; IC50 ([7]; GoA sensor): 0.0257 µM
CCCCCCC(C)(C)c1ccc([C@@H]2C[C@H](O)CC[C@H]2CCCO)c(O)c1 [CP 55940]							EC50 ([3]; pEC50 ± SEM (n) / CP 55940, B=Gi1, G protein BRET sensor (Gi1 or GoA), CGNs): 0.00661 µM; EC50 ([3]; pEC50 ± SEM (n) / CP 55940, B=GoA, G protein BRET sensor (Gi1 or GoA), CGNs): 0.055 µM; EC50 (cannabinoid CB1 receptor [4]; pEC50 ± SEM (n) / CP 55940, B=Gi1, G protein BRET sensor (Gi1 or GoA), transfected HEK293): 0.126 µM; EC50 (cannabinoid CB1 receptor [4]; pEC50 ± SEM (n) / CP 55940, B=GoA, G protein BRET sensor (Gi1 or GoA), transfected HEK293): 0.166 µM
CP(=O)(O)CCCN [SKF 97541]	2.34	2.04	0.302	0.603	0.229	0.692	
NCC(CC(=O)O)c1ccc(Cl)cc1 (stereo not drawn) [baclofen]	4.79	2.69	1.12	1.78	1.02	2.63	
